Laboratory results: patent US20190330224A1, “ACC INHIBITORS AND USES THEREOF” (Gilead Apollo, LLC, priority 2015, published 2019)
In brackets after ≈: the same amount, converted by molar mass. Where two headings read alike, the source gives them in different places.

Tests used:
ACC2 = ACC2 isolated from rat, mouse, monkey and human; cited from earlier work
ACC1 = ACC1 isolated from rat, mouse, monkey and human; cited from earlier work
Aspergillus fumigatus = experiment: In vitro antifungal assay (broth microdilution, Micromyx), A. fumigatus; format: cell-based; conditions: 48 hr
Method: (§1) Compounds of the present invention were also assayed in an in vitro antifungal assay against Candida glabrata, Candida tropicalis, and Aspergillus fumigatus, performed by Micromyx, a representative procedure of which follows. The test organisms were reference strains acquired from the American Type Culture Collection (ATCC). Upon receipt, the isolates were streaked onto Sabouraud Dextrose Agar (SDA). Colonies were harvested from these plates and a cell suspension was prepared in Sabouraud Dextrose Broth (Becton Dickinson, Sparks, Md.) containing cryoprotectant. Aliquots were then frozen at −80° C. Prior to the assay, the frozen seeds of all yeast isolates to be tested in that session were thawed and streaked for isolation onto SDA and incubated overnight at 35° C. All fungal isolates were previously streaked on SDA and incubated at 35° C. until spore formation occurred, followed by harvesting of the spores in sterile 0.85% saline and enumeration. The spore preps were stored at 4° C. Yeast and fungal isolates were tested in RPMI medium (Catalog No. SH30011.04; Lot No. AYB60287A; HyClone Labs, Logan, Utah) buffered with 0.165 M MOPS (Catalog No. 475898; Lot No. D00165859; CalBiochem, La Jolla, Calif.). The pH of the medium was adjusted to 7.0 with 1 N NaOH, sterile filtered using a 0.2 μm PES filter, and stored at 4° C. until used. All of the above media was prepared and stored according to guidelines from the Clinical and Laboratory Standards Institute (CLSI; 2-4). The broth microdilution assay method essentially followed the procedure described by CLSI (2-4) and employed automated liquid handlers to conduct serial dilutions and liquid transfers. Automated liquid handlers included the Multidrop 384 (Labsystems, Helsinki, Finland) and Biomek 2000 (Beckman Coulter, Fullerton Calif. The wells in columns 2-12 in standard 96-well microdilution plates (Costar 3795) were filled with 150 μl of the correct diluent. These would become the ‘mother plates’ from which ‘daughter’ or test plates would be prepared. The drugs (300 μL at 40× the desired top concentration in the test plates) were dispensed into the appropriate well in Column 1 of the mother plates. The Biomek 2000 was used to make serial two-fold dilutions through Column 11 in the “mother plate”. The wells of Column 12 contained no drug and were the organism growth control wells. The daughter plates were loaded with 185 μL per well of the appropriate test media using the Multidrop 384. The daughter plates were prepared using the Biomek FX which transferred 5 μL of drug solution from each well of a mother plate to the corresponding well of the correct daughter plate in a single step. A standardized inoculum of each organism was prepared per CLSI methods (2-4). For yeast isolates, colonies were picked from the primary plate and a suspension was prepared to equal a 0.5 McFarland turbidity standard. Suspensions were then diluted 1:100 in RPMI 1640 medium, resulting in a final inoculum concentration of 0.5-2.5×10^3 CFU/mL per test well. […] Standardized inoculum suspensions were transferred to compartments of sterile reservoirs divided by length (Beckman Coulter), and the Biomek 2000 was used to inoculate all plates. Daughter plates were placed on the Biomek 2000 in reverse orientation so that plates were inoculated from low to high drug concentration. The Biomek 2000 delivered 10 μL of standardized inoculum into each well of the appropriate daughter plate for an additional 1:20 dilution. Thus, the wells of the daughter plates ultimately contained 185 μL of the appropriate media, 5 μL of drug solution, and 10 μL of inoculum. The final concentration of DMSO (if used as a solvent) in the test well was 2.5%. Plates were stacked 3 high, covered with a lid on the top plate, placed into plastic bags, and incubated at 35° C. for approximately 24-48 hr for all yeast isolates, and 48 hr for all fungal isolates. Plates were viewed from the bottom using a plate viewer. […]

Candida tropicalis = experiment: In vitro antifungal assay (broth microdilution, Micromyx), C. tropicalis; format: cell-based; conditions: ATCC90874, strain 0636 ATCC 90874, 35° C., approximately 24-48 hr
Method: as §1

Candida glabrata = experiment: In vitro antifungal assay (broth microdilution, Micromyx), C. glabrata; format: cell-based; conditions: Nakaseomyces glabratus, ATCC90030, strain 0635 ATCC 90030, 35° C., approximately 24-48 hr
Method: as §1

Human ACC2 = Human ACC2 (Homo sapiens, UniProt O00763); experiment: In vitro ACC2 inhibition assay (ADP-Glo), human ACC2; format: biochemical; conditions: 5 nM ACC2, 20 μM ATP, 20 μM acetyl-CoA
C. albicans ATCC 90028 = experiment: Anti-Fungal Activity Assay (broth microtiter MIC), C. albicans; format: cell-based, Candida albicans; conditions: Candida albicans, ATCC90028, 48 h, 3 replicates; MIC recorded at 48 h; read-out: MIC C. albicans ATCC 90028
In short: (§2)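 Broth microdilution per CLSI M27-A3 in RPMI 1640+MOPS, inoculum from overnight Sabouraud dextrose agar colonies at 35° C; compounds from 1 mg/mL DMSO stocks. MIC read visually against growth control at 48 h, with an added 24 h reading for soraphen.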

C. krusei ATCC 6258 = experiment: Anti-Fungal Activity Assay (broth microtiter MIC), C. krusei; format: cell-based, Candida krusei; conditions: Pichia kudriavzevii, ATCC6258, 48 h, 3 replicates; MIC recorded at 48 h; read-out: MIC C. krusei ATCC 6258
In short: as §2

[1] = system: C. parapsilosis ATCC 22019; experiment: Anti-Fungal Activity Assay (broth microtiter MIC), C. parapsilosis; format: cell-based, Candida parapsilosis; conditions: Lodderomyces parapsilosis, ATCC22019, 48 h, 3 replicates; MIC recorded at 48 h; read-out: MIC C. parapsilosis ATCC 22019
In short: as §2

Fungal ACC2 = Fungal ACC2 (UniProt Q00955); conditions: read-out: Fungal ACC2 (IC50, in vitro ACC2 inhibition)
[2] = strain 5280 ATCC MYA-3626, 35° C., read-out: MIC, A. fumigatus 5280 ATCC MYA-3626
[3] = strain 6781 ATCC MYA-4609, 35° C., read-out: MIC, A. fumigatus 6781 ATCC MYA-4609

Sequence of Human ACC2 (O00763 whole entry): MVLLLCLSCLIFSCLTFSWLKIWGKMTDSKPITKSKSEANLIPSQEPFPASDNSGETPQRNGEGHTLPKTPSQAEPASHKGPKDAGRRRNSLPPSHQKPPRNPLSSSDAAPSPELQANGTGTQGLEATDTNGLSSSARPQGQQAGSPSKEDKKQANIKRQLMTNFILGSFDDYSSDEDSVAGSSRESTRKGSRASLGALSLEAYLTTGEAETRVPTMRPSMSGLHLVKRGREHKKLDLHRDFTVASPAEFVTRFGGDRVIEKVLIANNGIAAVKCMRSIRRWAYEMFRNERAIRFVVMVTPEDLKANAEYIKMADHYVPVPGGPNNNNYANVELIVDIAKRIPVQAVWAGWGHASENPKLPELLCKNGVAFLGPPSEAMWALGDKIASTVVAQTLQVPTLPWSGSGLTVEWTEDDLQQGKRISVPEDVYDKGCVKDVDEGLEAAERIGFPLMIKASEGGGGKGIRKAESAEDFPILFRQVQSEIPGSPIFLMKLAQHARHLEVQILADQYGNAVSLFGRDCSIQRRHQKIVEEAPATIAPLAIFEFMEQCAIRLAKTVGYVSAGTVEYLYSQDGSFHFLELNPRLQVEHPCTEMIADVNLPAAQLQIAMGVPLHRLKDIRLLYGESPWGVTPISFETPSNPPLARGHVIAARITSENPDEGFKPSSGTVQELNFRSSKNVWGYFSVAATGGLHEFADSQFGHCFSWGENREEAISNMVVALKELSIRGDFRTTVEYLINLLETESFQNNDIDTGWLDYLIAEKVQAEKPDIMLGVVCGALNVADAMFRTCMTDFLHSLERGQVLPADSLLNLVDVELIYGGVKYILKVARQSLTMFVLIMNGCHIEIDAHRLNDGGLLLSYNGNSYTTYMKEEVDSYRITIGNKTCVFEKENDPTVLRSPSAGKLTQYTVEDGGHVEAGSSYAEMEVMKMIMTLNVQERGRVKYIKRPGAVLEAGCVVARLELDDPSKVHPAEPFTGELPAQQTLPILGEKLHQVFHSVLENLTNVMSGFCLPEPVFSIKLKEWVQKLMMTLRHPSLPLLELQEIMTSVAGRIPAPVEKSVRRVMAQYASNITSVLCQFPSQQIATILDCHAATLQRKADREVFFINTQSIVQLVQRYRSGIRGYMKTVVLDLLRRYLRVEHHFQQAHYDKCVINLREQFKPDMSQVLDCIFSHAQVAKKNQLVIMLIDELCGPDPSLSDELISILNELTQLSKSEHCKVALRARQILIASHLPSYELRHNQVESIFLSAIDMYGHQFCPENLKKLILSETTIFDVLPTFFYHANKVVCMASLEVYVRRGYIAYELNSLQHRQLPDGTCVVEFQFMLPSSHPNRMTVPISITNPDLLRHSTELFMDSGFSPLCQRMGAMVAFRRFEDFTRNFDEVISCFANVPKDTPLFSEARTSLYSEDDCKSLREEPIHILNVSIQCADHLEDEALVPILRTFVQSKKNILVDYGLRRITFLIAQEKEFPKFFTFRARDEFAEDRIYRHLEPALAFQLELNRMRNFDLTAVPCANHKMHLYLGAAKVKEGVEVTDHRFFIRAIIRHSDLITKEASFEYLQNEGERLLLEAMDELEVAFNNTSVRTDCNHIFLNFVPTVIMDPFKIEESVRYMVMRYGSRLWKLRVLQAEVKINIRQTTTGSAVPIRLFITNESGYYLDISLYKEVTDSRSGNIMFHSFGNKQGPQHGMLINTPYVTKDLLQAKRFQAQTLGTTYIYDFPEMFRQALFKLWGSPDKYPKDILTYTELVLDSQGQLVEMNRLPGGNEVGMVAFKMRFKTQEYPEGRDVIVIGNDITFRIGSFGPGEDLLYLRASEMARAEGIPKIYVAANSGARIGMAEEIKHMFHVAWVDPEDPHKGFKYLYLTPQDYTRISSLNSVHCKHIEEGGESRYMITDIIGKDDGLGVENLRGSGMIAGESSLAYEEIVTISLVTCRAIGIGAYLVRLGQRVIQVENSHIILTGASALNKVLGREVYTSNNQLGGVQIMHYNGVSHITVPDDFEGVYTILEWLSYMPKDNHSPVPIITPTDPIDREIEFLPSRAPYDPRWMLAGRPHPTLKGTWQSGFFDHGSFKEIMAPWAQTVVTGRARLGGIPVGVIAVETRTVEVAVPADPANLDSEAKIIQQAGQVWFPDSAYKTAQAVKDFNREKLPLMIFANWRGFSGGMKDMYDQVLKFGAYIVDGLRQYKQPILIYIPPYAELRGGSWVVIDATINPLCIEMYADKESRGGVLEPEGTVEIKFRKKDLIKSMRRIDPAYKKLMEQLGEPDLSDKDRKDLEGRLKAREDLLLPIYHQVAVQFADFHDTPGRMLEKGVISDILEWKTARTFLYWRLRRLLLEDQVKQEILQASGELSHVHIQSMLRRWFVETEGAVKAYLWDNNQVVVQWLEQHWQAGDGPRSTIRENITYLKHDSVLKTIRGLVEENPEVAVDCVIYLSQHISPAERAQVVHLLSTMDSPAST
Sequence of Fungal ACC2 (Q00955 whole entry): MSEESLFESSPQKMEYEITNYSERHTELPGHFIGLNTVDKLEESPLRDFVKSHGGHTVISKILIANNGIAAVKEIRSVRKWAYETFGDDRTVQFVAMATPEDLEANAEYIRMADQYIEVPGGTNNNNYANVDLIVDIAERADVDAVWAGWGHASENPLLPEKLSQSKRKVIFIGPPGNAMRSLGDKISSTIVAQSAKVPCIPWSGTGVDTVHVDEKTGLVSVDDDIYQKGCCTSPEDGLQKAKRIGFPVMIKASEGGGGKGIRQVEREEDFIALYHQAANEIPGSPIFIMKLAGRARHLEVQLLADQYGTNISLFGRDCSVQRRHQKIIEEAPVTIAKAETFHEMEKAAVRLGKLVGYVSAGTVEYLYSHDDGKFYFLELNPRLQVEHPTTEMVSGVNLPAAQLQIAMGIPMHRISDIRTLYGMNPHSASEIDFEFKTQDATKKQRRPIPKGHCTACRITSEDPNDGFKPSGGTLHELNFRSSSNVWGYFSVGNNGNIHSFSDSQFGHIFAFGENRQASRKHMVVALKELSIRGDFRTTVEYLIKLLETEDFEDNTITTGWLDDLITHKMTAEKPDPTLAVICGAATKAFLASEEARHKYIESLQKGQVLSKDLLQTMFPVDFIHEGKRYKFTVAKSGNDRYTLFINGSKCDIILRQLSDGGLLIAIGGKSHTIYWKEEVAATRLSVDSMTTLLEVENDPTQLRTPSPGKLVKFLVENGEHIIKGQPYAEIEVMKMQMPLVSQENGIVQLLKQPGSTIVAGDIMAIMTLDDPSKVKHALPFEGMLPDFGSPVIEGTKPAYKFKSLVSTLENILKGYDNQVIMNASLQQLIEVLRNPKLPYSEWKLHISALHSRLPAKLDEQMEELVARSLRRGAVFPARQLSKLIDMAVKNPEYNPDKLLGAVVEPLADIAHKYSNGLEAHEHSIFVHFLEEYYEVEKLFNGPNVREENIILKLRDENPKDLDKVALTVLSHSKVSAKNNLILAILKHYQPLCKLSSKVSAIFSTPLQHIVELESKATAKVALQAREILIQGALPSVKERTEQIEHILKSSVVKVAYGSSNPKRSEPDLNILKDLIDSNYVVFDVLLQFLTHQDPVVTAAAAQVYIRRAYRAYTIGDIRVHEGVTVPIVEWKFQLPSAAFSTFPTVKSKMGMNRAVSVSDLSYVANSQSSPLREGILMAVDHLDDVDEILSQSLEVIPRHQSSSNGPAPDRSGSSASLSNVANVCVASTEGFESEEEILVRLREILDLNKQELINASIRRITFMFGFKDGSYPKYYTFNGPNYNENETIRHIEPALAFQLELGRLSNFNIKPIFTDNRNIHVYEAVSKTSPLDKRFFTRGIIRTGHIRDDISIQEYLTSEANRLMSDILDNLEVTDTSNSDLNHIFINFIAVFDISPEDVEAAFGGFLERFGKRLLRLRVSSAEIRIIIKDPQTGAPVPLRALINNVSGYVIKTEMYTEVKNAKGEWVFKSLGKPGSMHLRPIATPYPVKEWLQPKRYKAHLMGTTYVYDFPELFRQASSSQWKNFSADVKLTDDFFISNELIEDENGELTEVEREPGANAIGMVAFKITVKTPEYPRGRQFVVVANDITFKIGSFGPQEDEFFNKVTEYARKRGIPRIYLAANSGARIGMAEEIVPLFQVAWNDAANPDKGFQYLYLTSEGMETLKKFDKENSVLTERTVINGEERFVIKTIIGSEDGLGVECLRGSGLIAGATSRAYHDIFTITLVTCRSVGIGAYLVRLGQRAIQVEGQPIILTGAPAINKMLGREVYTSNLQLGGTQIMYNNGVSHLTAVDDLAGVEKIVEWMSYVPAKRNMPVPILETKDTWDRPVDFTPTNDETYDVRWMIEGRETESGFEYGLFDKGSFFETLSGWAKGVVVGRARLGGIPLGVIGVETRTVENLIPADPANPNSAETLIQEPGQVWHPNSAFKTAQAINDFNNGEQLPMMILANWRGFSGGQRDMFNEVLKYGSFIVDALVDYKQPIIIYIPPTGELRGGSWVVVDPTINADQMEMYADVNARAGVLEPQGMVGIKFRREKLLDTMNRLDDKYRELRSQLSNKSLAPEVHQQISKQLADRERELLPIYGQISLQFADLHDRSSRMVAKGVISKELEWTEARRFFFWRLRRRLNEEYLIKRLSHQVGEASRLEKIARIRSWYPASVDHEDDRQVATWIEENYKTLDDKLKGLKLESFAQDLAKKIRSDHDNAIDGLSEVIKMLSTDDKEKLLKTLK

Row | SMILES | MIC (Aspergillus fumigatus; [2]) [µg/mL] | MIC (Aspergillus fumigatus; [3]) [µg/mL] | MIC (Candida tropicalis) [µg/mL] | MIC (Candida glabrata) [µg/mL] | IC50 (Human ACC2) [nM] | MIC (C. albicans ATCC 90028) [µg/mL] | MIC (C. krusei ATCC 6258) [µg/mL] | MIC [1] [µg/mL] | IC50 (ACC2) [nM] | IC50 (ACC1) [nM] | IC50 (Fungal ACC2) [nM]
1 | O=C(c1c2ccccc2cc2ccccc12)N1CCC(N2CCC[C@@H](C(=O)N3CCOCC3)C2)CC1 [CP-640186] | – | – | – | – | – | – | – | – | ~60 | ~60 | –
2 | COc1ccc(F)cc1[C@H](Cn1c(=O)n([C@@H]2CCN(C)C2=O)c(=O)c2c(C)c(-n3nccn3)sc21)OC1CCOCC1 [Compound I-36, 1-((R)-2-(5-fluoro-2-methoxyphenyl)-2-((tetrahydro-2H-pyran-4-yl)oxy)ethyl)-5-methyl-3-((R)-1-methyl-2-oxopyrrolidin-3-yl)-6-(2H-1,2,3-triazol-2-yl)thieno[2,3-d]pyrimidine-2,4(1H,3H)-dione] | 0.25 to 1 (≈ 0.418 to 1.67 µM) | 0.25 to 1 (≈ 0.418 to 1.67 µM) | 0.25 to 1 (≈ 0.418 to 1.67 µM) | > 4.1 | 2 to 10 | 0.25 to 1 (≈ 0.418 to 1.67 µM) | 0.25 to 1 (≈ 0.418 to 1.67 µM) | 0.25 to 1 (≈ 0.418 to 1.67 µM) | – | – | 2 to 10
3 | COc1ccc(F)cc1[C@H](Cn1c(=O)n([C@H]2CCCN(C)C2=O)c(=O)c2c(C)c(-n3nccn3)sc21)OC1CCOCC1 [Compound I-39, 1-((R)-2-(5-fluoro-2-methoxyphenyl)-2-((tetrahydro-2H-pyran-4-yl)oxy)ethyl)-5-methyl-3-((S)-1-methyl-2-oxopiperidin-3-yl)-6-(2H-1,2,3-triazol-2-yl)thieno[2,3-d]pyrimidine-2,4(1H,3H)-dione] | 1.1 to 2 (≈ 1.8 to 3.26 µM) | 1.1 to 2 (≈ 1.8 to 3.26 µM) | 0.25 to 1 (≈ 0.408 to 1.63 µM) | > 4.1 | 2 to 10 | 0.25 to 1 (≈ 0.408 to 1.63 µM) | 0.25 to 1 (≈ 0.408 to 1.63 µM) | 0.25 to 1 (≈ 0.408 to 1.63 µM) | – | – | 0.7 to 2

Further lines, with some results ahead:

Row | MIC (Aspergillus fumigatus; [2]) [µg/mL] | MIC (Aspergillus fumigatus; [3]) [µg/mL] | MIC (Candida tropicalis) [µg/mL] | MIC (Candida glabrata) [µg/mL] | IC50 (Human ACC2) [nM] | MIC (C. albicans ATCC 90028) [µg/mL] | MIC (C. krusei ATCC 6258) [µg/mL] | MIC [1] [µg/mL] | SMILES | IC50 (ACC2) [nM] | IC50 (ACC1) [nM] | IC50 (Fungal ACC2) [nM]
4 | 0.25 to 1 (≈ 0.408 to 1.63 µM) | 0.25 to 1 (≈ 0.408 to 1.63 µM) | 0.25 to 1 (≈ 0.408 to 1.63 µM) | > 4.1 | 2 to 10 | – | – | – | CCN1CCC(n2c(=O)c3c(C)c(-n4nccn4)sc3n(C[C@H](OC3CCOCC3)c3cc(F)ccc3OC)c2=O)C1=O (stereo partly drawn) [Compound I-11, 3-(1-ethyl-2-oxopyrrolidin-3-yl)-1-((R)-2-(5-fluoro-2-methoxyphenyl)-2-((tetrahydro-2H-pyran-4-yl)oxy)ethyl)-5-methyl-6-(2H-1,2,3-triazol-2-yl)thieno[2,3-d]pyrimidine-2,4(1H,3H)-dione] | – | – | –
5 | 0.25 to 1 (≈ 0.399 to 1.6 µM) | 0.25 to 1 (≈ 0.399 to 1.6 µM) | 0.25 to 1 (≈ 0.399 to 1.6 µM) | > 4.1 | 2 to 10 | 0.25 to 1 (≈ 0.399 to 1.6 µM) | 0.25 to 1 (≈ 0.399 to 1.6 µM) | 0.25 to 1 (≈ 0.399 to 1.6 µM) | COc1ccc(F)cc1[C@H](Cn1c(=O)n(C2CCN(C(C)C)C2=O)c(=O)c2c(C)c(-n3nccn3)sc21)OC1CCOCC1 (stereo partly drawn) [Compound I-12, 1-((R)-2-(5-fluoro-2-methoxyphenyl)-2-((tetrahydro-2H-pyran-4-yl)oxy)ethyl)-3-(1-isopropyl-2-oxopyrrolidin-3-yl)-5-methyl-6-(2H-1,2,3-triazol-2-yl)thieno[2,3-d]pyrimidine-2,4(1H,3H)-dione] | – | – | –
6 | 1.1 to 2 (≈ 1.88 to 3.42 µM) | 1.1 to 2 (≈ 1.88 to 3.42 µM) | 0.25 to 1 (≈ 0.428 to 1.71 µM) | > 4.1 | 2 to 10 | 0.25 to 1 (≈ 0.428 to 1.71 µM) | 0.25 to 1 (≈ 0.428 to 1.71 µM) | 0.25 to 1 (≈ 0.428 to 1.71 µM) | COc1ccc(F)cc1[C@H](Cn1c(=O)n([C@@H]2CCNC2=O)c(=O)c2c(C)c(-n3nccn3)sc21)OC1CCOCC1 [Compound I-34, 1-((R)-2-(5-fluoro-2-methoxyphenyl)-2-((tetrahydro-2H-pyran-4-yl)oxy)ethyl)-5-methyl-3-((R)-2-oxopyrrolidin-3-yl)-6-(2H-1,2,3-triazol-2-yl)thieno[2,3-d]pyrimidine-2,4(1H,3H)-dione] | – | – | –
7 | 1.1 to 2 (≈ 1.84 to 3.34 µM) | 1.1 to 2 (≈ 1.84 to 3.34 µM) | 0.25 to 1 (≈ 0.418 to 1.67 µM) | > 4.1 | 2 to 10 | 0.25 to 1 (≈ 0.418 to 1.67 µM) | 0.25 to 1 (≈ 0.418 to 1.67 µM) | 0.25 to 1 (≈ 0.418 to 1.67 µM) | COc1ccc(F)cc1[C@H](Cn1c(=O)n([C@H]2CCCNC2=O)c(=O)c2c(C)c(-n3nccn3)sc21)OC1CCOCC1 [Compound I-37, 1-((R)-2-(5-fluoro-2-methoxyphenyl)-2-((tetrahydro-2H-pyran-4-yl)oxy)ethyl)-5-methyl-3-((S)-2-oxopiperidin-3-yl)-6-(2H-1,2,3-triazol-2-yl)thieno[2,3-d]pyrimidine-2,4(1H,3H)-dione] | – | – | –
